Measured values as given in ChEMBL document CHEMBL1153962, “Thiodisaccharides with galactofuranose or arabinofuranose as terminal units: synthesis and inhibitory activity of an exo beta-D-galactofuranosidase” (Bioorg Med Chem, 2009).
The source made the active and inactive calls. No cut-off for these calls is given here.

Columns and labels:
[1] = Inhibition of Penicillium fellutanum exo beta-D-galactofuranosidase assessed as 4-nitrophenol release by spectrophotometry
[2] = system: Penicillium fellutanum; assay: Inhibition of Penicillium fellutanum exo beta-D-galactofuranosidase assessed as 4-nitrophenol release at 0.2 to 1 mM by spectrophotometry

Row | IC50 [1] [µM] | Activity [2] | Compound
1 | > 1000 | Active | CO[C@H]1O[C@H](CS[C@@H]2O[C@@H]([C@H](O)CO)[C@H](O)[C@H]2O)[C@H](O)[C@H](O)[C@H]1O
2 | > 1000 | Active | CC1(C)O[C@H]2[C@@H](O1)[C@@H](CS[C@@H]1O[C@@H]([C@H](O)CO)[C@H](O)[C@H]1O)O[C@@H]1OC(C)(C)O[C@@H]12
3 | 20 |  | O=C1O[C@@H]([C@H](O)CO)[C@H](O)[C@H]1O
4 |  | inactive | CO[C@H]1O[C@H](CS[C@@H]2O[C@@H](CO)[C@H](O)[C@H]2O)[C@@H](O)[C@H](O)[C@H]1O
